One assay has as its system NK1 and NK2 receptors. Nature of the assay: Modulation of respiratory effects produced by capsaicin aerosol in conscious guinea pigs. The assay is classed as in vivo, guinea pig. Conditions: for dyspnea onset / maximum pressure increase: capsaicin aerosol; for dyspnea onset / maximum pressure increase / SRE number (coughs/gasps): mean and SEM; for SRE number (coughs/gasps): during 19 min capsaicin exposure; for dyspnea incidence: i.v. 20 min prior to capsaicin aerosol (0.001%). On the procedure: (§1) In vivo experiments were performed using male Duncan Hartley guinea pigs (250-350g). Changes in conscious breathing patterns were monitored in four animals simultaneously using modified whole body plethysmography consisting of four small plexiglass boxes each connected to a reference box via Validyne DP 45-16 differential pressure transducers. The 4 boxes were equipped with an air supply line (also used for aerosol delivery) and an exhaust air line. Supply and exhaust lines were of the same length and narrow bore and arose from a common supply chamber and vented to a common exhaust chamber. This system was used to ensure that fluctuations in supply air and atmospheric pressure would remain in phase and be eliminated from the net signal by the differential pressure transducers. The analog pressure signals were digitalized via a Data Translation DT2821 A to D board. Data were collected at a rate of 100 samples/second/animal. Each cycle of pressure change was analyzed using the following parameters: rising and falling slope determined between minimum and maximum pressures, the ratio of rising over falling slope, and the magnitude of the change between initial trough pressure and peak cycle pressure. Using these values (and observing the animals) the pressure cycles were characterized into normal breaths, forced exhalations (apparent by abdominal heaving), significant respiratory events (SREs; usually coughs, less often sneezes or gasps which were characterized by transient, extremely large pressure increases which were distinguishable from noise) and movement/noise with a PCAT 286 running a System V UNIX operating system. Dyspnea was defined as a significant, sustained increase in plethysmograph pressure which was associated with an observable shift to labored breathing in the animal.
(§2) During the course of a typical experiment in which airway responsiveness to various bronchoconstricting agents was examined, aerosols were delivered for 19 min (0.33 ml/min) using a DeVilbiss Ultraneb 99 ultrasonic nebulizer and animals monitored during this time. Prior to nebulization, 1 min of resting breathing was collected to establish a baseline pressure. […] The vehicle for nebulization of all bronchoconstrictive agents was phosphate buffered saline (pH 7.4) which elicited no respiratory effects itself. Putative tachykinin antagonists were administered either (i.v.) 20 min prior to onset of aerosol exposure or orally 1 hour prior to onset (to guinea pigs after an overnight fast).
Capsaicin aerosol is known to promote release of the tachykinins SP and NKA from sensory nerves in the airways of guinea pigs which may then act upon NK1 and NK2 receptors, respectively to elicit respiratory effects.

The target of another assay is T1, NK1 receptor (Cavia porcellus, UniProt P30547).
T1 construct: evaluated in guinea pig lungs; tissue Keystone Biologicals, Cleveland, OH; host or cells: guinea pig lung
Nature of the assay: Antagonism of SP-induced plasma protein extravasation in guinea pig trachea. The assay is classed as in vivo. On the procedure: SP-induced protein leakage through postcapillary venules was assessed by measuring Evans Blue dye accumulation in guinea pig trachea. Animals were anesthetized with pentobarbital then injected with Evans Blue dye (20 mg/kg, i.v., prepared in 0.9% NaCl solution). One minute after dye administration, the antagonist was administered (i.v.) followed by SP (0.3 nmole/kg, i.v.) and, after 5 min, excess dye removed from the circulation by transcardiac perfusion with 50 ml 0.9% NaCl solution. The trachea and primary bronchi were removed, blotted dry and weighed. Dye quantitation was performed spectrophotometrically ([…]) after extracting tissues in formamide for 24 hr at 50° C.. Values were subtracted from background (dye only, no agonist). ED50 (dose of compound which inhibits SP-induced plasma protein extravasation by 50%) was calculated from linear regression analysis.

For another assay, the system named is NK2 receptor. Put plainly: Antagonism of NKA-induced respiratory effects in conscious guinea pigs. Conditions: for dyspnea incidence / dyspnea onset: i.v. 20 min prior to NKA aerosol (0.05%); for dyspnea onset: mean and SEM; for effect on NKA-induced respiratory effects (in words): NKA aerosol, dose dependent. It is filed as in vivo, guinea pig. On the procedure: as §1, §2

T1 sequence (P30547 whole entry): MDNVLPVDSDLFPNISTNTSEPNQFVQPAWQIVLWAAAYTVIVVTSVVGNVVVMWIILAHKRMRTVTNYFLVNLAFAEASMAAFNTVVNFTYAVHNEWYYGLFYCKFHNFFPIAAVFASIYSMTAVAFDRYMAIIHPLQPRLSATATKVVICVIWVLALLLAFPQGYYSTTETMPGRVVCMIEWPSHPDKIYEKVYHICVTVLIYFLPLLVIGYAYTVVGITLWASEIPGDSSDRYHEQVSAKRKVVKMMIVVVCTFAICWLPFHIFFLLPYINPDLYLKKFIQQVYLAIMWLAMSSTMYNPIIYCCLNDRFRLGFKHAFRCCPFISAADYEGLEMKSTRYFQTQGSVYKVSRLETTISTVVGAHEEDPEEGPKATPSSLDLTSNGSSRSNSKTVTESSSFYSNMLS

One may read the ED50 as the dose that gives a 50% effect, or the effect in half of the subjects. For the compound `COc1cc(C(=O)N2CCC(CCN3CCC(C(N)=O)(c4ccccc4)CC3)(c3ccc(Cl)c(Cl)c3)C2)cc(OC)c1OC.Cl` (single isomer, unassigned; (+)) [Example 20A, (+)-1-[2-[3-(3,4-dichloro-phenyl)-1-(3,4,5-trimethoxy-benzoyl)-pyrrolidin-3-yl]-ethyl]-4-phenyl-piperidine-4-carboxylic acid amide hydrochloride], the dyspnea onset stood at 331 ± 22 s in the assay with NK1 and NK2 receptors (1 mg/kg i.v.); 426 ± 57 s in the assay with NK1 and NK2 receptors (2.5 mg/kg i.v.); 597 ± 186 s in the assay with NK1 and NK2 receptors (5 mg/kg i.v.); 592 ± 71 s in the assay with NK1 and NK2 receptors (10 mg/kg i.v.); 451 ± 30 s in the assay on NK2 receptor (1 mg/kg); 706 ± 82 s in the assay on NK2 receptor (5 mg/kg). In addition, the dyspnea onset in the assay on NK2 receptor (10 mg/kg) was found to be 829 ± 105 s. The maximum pressure increase is 1.0 ± 0.1 mmH2 O with NK1 and NK2 receptors (1 mg/kg i.v.); 0.6 ± 0.1 mmH2 O with NK1 and NK2 receptors (2.5 mg/kg i.v.); 0.8 ± 0.06 mmH2 O in the assay with NK1 and NK2 receptors (5 mg/kg i.v.); 0.8 ± 0.1 mmH2 O in the assay on NK1 and NK2 receptors (10 mg/kg i.v.). Besides, the “SRE number (coughs/gasps)” value in the assay on NK1 and NK2 receptors (1 mg/kg i.v.) is given as 9.9 ± 2.7; with NK1 and NK2 receptors (2.5 mg/kg i.v.) it was 8.3 ± 1.6; in the assay with NK1 and NK2 receptors (5 mg/kg i.v.), 4.4 ± 1.9; in the assay with NK1 and NK2 receptors (10 mg/kg i.v.), 3.3 ± 1.1. For the same compound, the dyspnea incidence turned out to be 77.8% in the assay with NK1 and NK2 receptors (1 mg/kg); 100% in the assay with NK1 and NK2 receptors (2.5 mg/kg); 44.4% in the assay with NK1 and NK2 receptors (5 mg/kg); 55.6% in the assay with NK1 and NK2 receptors (10 mg/kg); 100% in the assay on NK2 receptor (1 mg/kg); 90% with NK2 receptor (5 mg/kg). Further, the dyspnea incidence in the assay on NK2 receptor (10 mg/kg) is reported as 70%. In addition, the “effect on capsaicin-induced respiratory effects (in words)” value with NK1 and NK2 receptors (intravenous) is “attenuate capsaicin-induced respiratory effects”. Besides, at NK1 receptor (guinea pig, iv, i.v. 2 min prior to SP, mean (95% confidence limits), at least 3 doses, at least 4 animals per dose, read-out: ED50 for inhibition of SP-induced plasma protein extravasation), the ED50 worked out at 0.2 mg/kg. Also, at NK1 receptor (i.v.), the “relative potency against SP-induced plasma protein extravasation (in words)” value is “equipotent NK-1 receptor antagonists”. Further, in the assay on NK2 receptor, the “effect on NKA-induced respiratory effects (in words)” value is “reduced the effects of NKA aerosol”.

As for `COc1cc(C(=O)N2CCC(CCN3CCC(C(N)=O)(c4ccccc4)CC3)(c3ccc(Cl)c(Cl)c3)C2)cc(OC)c1OC` (stereo not shown) [Example 3, 1-[2-[3-(3,4-dichloro-phenyl)-1-(3,4,5-trimethoxy-benzoyl)-pyrrolidin-3-yl]-ethyl]-4-phenyl-piperidine-4-carboxylic acid amide], the “relative potency against SP-induced plasma protein extravasation (in words)” value on NK1 receptor (i.v.) is “equipotent NK-1 receptor antagonists”. The “antagonism of SP-induced plasma protein extravasation (in words)” value at NK1 receptor (i.v., FIG. 2) is given as “dose related antagonism of SP-induced plasma protein extravasation in guinea pig trachea”. Also, the values for the dyspnea incidence with NK2 receptor (5 mg/kg) and in the assay on NK2 receptor (10 mg/kg) were 86% and 60%, respectively. Besides, the “effect on NKA-induced respiratory effects (in words)” value in the assay with NK2 receptor is recorded as “reduced the effects of NKA aerosol”.
